Data reported in publication PMC10449632, “Structural basis for translation inhibition by the glycosylated drosocin peptide” (Nature Chemical Biology, 2023).
No end group written: not given here. *: point of attachment. β‑D‑cellobiosyl = OC[C@H]1O[C@@H](O[C@H]2[C@H](O)[C@@H](O)[C@H](*)O[C@@H]2CO)[C@H](O)[C@@H](O)[C@@H]1O; β‑D‑lactosyl = OC[C@H]1O[C@@H](O[C@H]2[C@H](O)[C@@H](O)[C@H](*)O[C@@H]2CO)[C@H](O)[C@@H](O)[C@H]1O; β‑D‑maltosyl = OC[C@H]1O[C@H](O[C@H]2[C@H](O)[C@@H](O)[C@H](*)O[C@@H]2CO)[C@H](O)[C@@H](O)[C@@H]1O; α‑D‑GlcNAc = CC(=O)N[C@@H]1[C@@H](O)[C@H](O)[C@@H](CO)O[C@@H]1*; βGlc = OC[C@H]1O[C@@H](*)[C@H](O)[C@@H](O)[C@@H]1O; βGal = OC[C@H]1O[C@@H](*)[C@H](O)[C@@H](O)[C@H]1O

Columns and labels:
[1] = test system: ribosomes at the stop codon of MLIF-UAA mRNA in the presence of RF1; assay: Toeprinting assay on MLIF*-mRNA with RF1; format: biochemical, Escherichia coli; settings: for Relative stop band intensity signal: 30 μM compound, MLIF*-mRNA, plotted values
Method: (§1) To ascertain which step during protein synthesis is affected by drosocin, we performed toeprinting assays, where reverse transcription is used to monitor the position of ribosomes on a defined mRNA[34].
(§2) Toeprinting reactions were performed as described previously. In brief, reactions were performed with 6 μl of PURExpress ΔRF123 in vitro protein synthesis system (NEB) in the presence of 1× RF3 and either 1× or 10× of RF1 or RF2 (relative to the manufacturer’s recommendation). The reactions were carried out on an MLIF-UAA-toeprint template (5′-[…]-3′, ORF start codon and stop codon are underlined bold), containing T7 promoter, a ribosome binding site, an MLIF-coding ORF and the NV1* primer binding site. The template is a version of the ErmBL template with a truncated ORF and addition of a isoleucine coding codon at the third position in the ORF. The template was generated by polymerase chain reaction of two overlapping 77-nt- and 78-nt-long primers. The reactions contained 30 ng of the MLIF-UAA-toeprint DNA template. The reactions were supplemented with Api137, thiostrepton or one of the drosocin derivates as specified. The transcription–translation reactions were incubated for 15 minutes at 37 °C. The reverse transcription on the MLIF-short-UAA toeprint template was carried out using AMV RT and primer NV*1-Alexa 647 (5′-[…]-3′). The transcription–translation reactions were incubated with AMV RT and NV*1-Alexa 647 for 20 minutes at 37 °C. mRNA degradation was carried out by the addition of 1 µl of 5 M NaOH. The reactions were neutralized with 0.7 µl of 25% HCl, and nucleotide removal was performed with the QIAquick Nucleotide Removal Kit (Qiagen). The samples were dried under vacuum for 2 hours at 60 °C for subsequent gel electrophoresis. The 6% acrylamide gels were scanned on a Typhoon scanner (GE Healthcare).

[2] = test system: ribosomes at the stop codon of MLIF-UAA mRNA in the presence of RF2; assay: Toeprinting assay on MLIF*-mRNA with RF2; format: biochemical, Escherichia coli; settings: Fig 1h, RF2 (10X), 30 μM compound, plotted values
Method: as §1, §2

[3] = test system: E. coli Keio wt (BW25113); assay: Antibiotic susceptibility (growth) assay, E. coli Keio wild-type; format: cell-based, Escherichia coli; settings: 30 μM peptide; for Average of normalized growth: average of three biological replicates; for growth inhibition in rich medium: rich (LB) medium
Source text: (§3) Many PrAMPs use the SbmA transporter to pass through the E. coli inner membrane[4],[10],[31]; however, whether drosocin also uses SbmA remains, to our knowledge, unknown. To address this, we monitored the effect of the presence of diverse drosocin peptides (Fig. 1a,b and Supplementary Fig. 1a) on the growth of the wild-type E. coli strain BW25113 containing SbmA or lacking SbmA (ΔsbmA) (Fig. 1c,d). We compared unmodified drosocin (Dro) with various modified forms (Fig. 1a,b). The modified forms included the naturally occurring Dro1 and Dro2 that carry either a monosaccharide (α-D-GalNAc) or disaccharide (β-D-Gal(1→3)-α-D-GalNAc) attached to Thr11, respectively (Fig. 1b). In addition, we examined the previously reported[23],[24] drosocin derivatives bearing β-D-Maltosyl (Dro3), α-D-GlcNAc (Dro4), β-D-Gal (Dro5), β-D-Glc (Dro6), β-D-Lactosyl (Dro7) and β-D-Cellobiosyl (Dro8) modifications on Thr11 (Fig. 1a,b and Supplementary Fig. 1a). Finally, we also included in our analysis the synthetic unmodified drosocin derivative with proline substitutions at positions 7, 11 and 12 (Dro-3P) (Fig. 1a), which was previously reported to have similar antimicrobial activity to the monosaccharide form of drosocin[25]. Growth was monitored in both rich (LB) and minimal medium in the presence of 30 μM of each peptide and normalized with the growth in the absence of the compounds (Methods). […] We also observed no inhibition for Dro2 nor for any of the β-linked disaccharides (Dro3, Dro6 or Dro7). […] By contrast, all drosocin peptides inhibited growth of the E. coli BW25113 strain in minimal medium, albeit to different extents (Fig. 1d).
(§4) Strains E. coli Keio wild-type and E. coli Keio ΔsbmA used from the Keio knockout collection (Horizon, https://horizondiscovery.com). Wild-type E. coli SQ110 (ΔrrnGADBHC(ptRNA67))[47] and SQ171 (ΔrrnGADEHBC(pKK3535, ptRNA67))[47] strains and related mutants E. coli SQ110 A2059G and E. coli SQ171 A2503G were obtained from the previous Api137 study. E. coli strains SQ171 bearing A752G, U2609C and A752G:U2609C mutations[43] and E. coli SQ171 U2609G[48] were generated previously.
(§5) The susceptibility of E. coli strains to compounds was evaluated by monitoring the bacterial growth in presence of increasing concentrations of the compound of interest. In brief, bacteria were inoculated in a total volume of 100 μl of medium contained in a well of a 96-well microplate (round bottom, with cap, sterile; Sarstedt). The medium used was either LB, as rich medium, or ATCC medium (778 Davis and Mingioli glucose minimal medium), as minimal medium. Before inoculation, bacteria were grown up to exponential phase and then inoculated into the culture mix, containing selective antibiotic if necessary, with an initial optical density at 600 nm (OD600) of 0.05. Values measured from wells containing just the medium were used as a blank. The growth in each well was monitored by measuring the OD600 every 10 minutes for a total of 20 hours at 37 °C with shaking using a plate reader (Tecan Infinite 200 PRO). The inhibition resulting from a compound’s concentration was evaluated by normalizing the OD600 at t = 12 hours (corresponding to the end of the log phase) from the treated culture to the untreated one. For each compound, the concentrations tested were 5 μM, 10 μM and 30 μM. Each single titration assay was done in triplicate with individually prepared culture mixes. For each concentration, the standard deviation was calculated, taking into account each single replica and its specific technical error from the plate reader.

[4] = test system: E. coli Keio ∆sbmA (BW25113 ΔsbmA); assay: Antibiotic susceptibility (growth) assay, E. coli Keio ΔsbmA; format: cell-based, Escherichia coli; settings: 30 μM peptide, average of three biological replicates
Source text: as §3, §4, §5

[5] = test system: in vitro translation, E. coli PURExpress system, firefly luciferase (Fluc) mRNA; assay: In vitro translation assay with Fluc reporter; format: biochemical, Escherichia coli
Method: To investigate this, we compared the effect of increasing concentrations (0–150 μM) of modified Dro1 and Dro2 with unmodified Dro, Dro-3P and Api137 using a cell-free in vitro translation system and firefly luciferase (Fluc) mRNA as a template (Fig. 1e), as we have used previously for assessing the activity of other PrAMPs[4],[6],[8],[9],[32],[33].
The in vitro translation assay was carried out as described previously[4],[8] using the E. coli PURExpress system (New England Biolabs (NEB), E6800S). Then, 1 µl of antibiotic solution was added to 5 µl of PURExpress reaction mix. Each reaction contained 10 ng μl^−1 of mRNA encoding the Fluc, which was in vitro transcribed from a pIVEX-2.3MCS vector containing the Fluc gene using T7 polymerase (Thermo Fisher Scientific). The reaction mix was incubated for 30 minutes at 32 °C while shaking (600 r.p.m.). Reactions were stopped with 5 µl of kanamycin (50 mg ml^−1) and transferred into a 96-well microplate (Greiner Lumitrac, non-binding, white, chimney). Next, 40 µl of luciferase assay substrate solution (Promega, E1501) was added, and luminescence was measured using a plate reader (Tecan Infinite 200 PRO). Nuclease-free water was added instead of antibiotic as control. Absolute luminescence values were normalized using reactions without antibiotic. All assays were done as triplicates with individually prepared reaction mix.

Substance	Relative stop band intensity signal ([1]; Fig 1f, RF1 (1X))	Relative stop band intensity signal ([1]; Fig 1g, RF1 (10X))	Relative stop band intensity signal [2]	Average of normalized growth ([3]; LB rich medium)	Average of normalized growth ([3]; Minimal medium)	growth inhibition in rich medium [3]	Average of normalized growth ([4]; LB rich medium)	Average of normalized growth ([4]; Minimal medium)	maximum inhibition of in vitro translation ([5]; at the highest concentration tested of 150 μM, Fluc mRNA, luminescence)	stalling of ribosomes at the stop codon ([1]; toeprinting, 30 μM peptide, 1× or 10× RF1 (trend also with ten-fold RF2))	activity in in vitro translation assays ([5]; Fluc reporter, increasing concentrations of peptide)
Dro2: naturally occurring drosocin carrying disaccharide β-D-Gal(1→3)-α-D-GalNAc attached to Thr11 (GKPRPYSPRPTSHPRPIRV; not fully specified (residue 11); UniProt P36193 22-40, looked up)	0.3007	0.625	0.06699	92%	25%	no inhibition	96%	101%	40%	–	–
Dro3: drosocin derivative bearing β-D-Maltosyl on Thr11 (GKPRPYSPRPT(β‑D‑maltosyl)SHPRPIRV; UniProt P36193 22-40, looked up)	0.2727	0.5086	0.02902	97%	41%	no inhibition	97%	105%	–	–	–
Dro4: drosocin derivative bearing α-D-GlcNAc on Thr11 (GKPRPYSPRPT(α‑D‑GlcNAc)SHPRPIRV; UniProt P36193 22-40, looked up)	0.3375	0.6077	0.166	60%	38%	growth inhibition	97%	103%	–	to a lesser extent	–
Dro5: drosocin derivative bearing β-D-Gal on Thr11 (GKPRPYSPRPT(βGal)SHPRPIRV; UniProt P36193 22-40, looked up)	0.2051	0.5557	0.04941	93%	24%	no inhibition	100%	107%	–	–	–
Dro6: drosocin derivative bearing β-D-Glc on Thr11 (GKPRPYSPRPT(βGlc)SHPRPIRV; UniProt P36193 22-40, looked up)	0.04582	0.4077	0.01282	94%	72%	no inhibition	99%	106%	–	–	–
Dro7: drosocin derivative bearing β-D-Lactosyl on Thr11 (GKPRPYSPRPT(β‑D‑lactosyl)SHPRPIRV; UniProt P36193 22-40, looked up)	0.1333	0.3035	0.0472	97%	50%	no inhibition	101%	109%	–	–	–
Dro8: drosocin derivative bearing β-D-Cellobiosyl on Thr11 (GKPRPYSPRPT(β‑D‑cellobiosyl)SHPRPIRV; UniProt P36193 22-40, looked up)	0.1518	0.3011	0.03669	97%	85%	–	102%	112%	–	–	–
Dro-R18A (GKPRPYSPRPTSHPRPIAV; ends and bridges not checked; UniProt P36193 22-40, looked up, variant R18A)	–	–	–	–	–	–	–	–	–	–	complete loss of activity
